Experimental data taken from patent publication US6388105B1, “Benzofuran, indole or benzothiophene 2,4-pentadienoic acid derivatives having selective activity for retinoid X (RXR) receptors” (Allergan Sales, Inc., priority 2001, dated 2002).

Experiments:
RXRγ [1] = target: T1, RXRγ (Homo sapiens, UniProt P48443); experiment: ligand binding assay, RXRγ; settings: read-out: Kd (nM) RXR γ
T1 construct: expressed in transfected cells
T1 sequence (P48443 1-463): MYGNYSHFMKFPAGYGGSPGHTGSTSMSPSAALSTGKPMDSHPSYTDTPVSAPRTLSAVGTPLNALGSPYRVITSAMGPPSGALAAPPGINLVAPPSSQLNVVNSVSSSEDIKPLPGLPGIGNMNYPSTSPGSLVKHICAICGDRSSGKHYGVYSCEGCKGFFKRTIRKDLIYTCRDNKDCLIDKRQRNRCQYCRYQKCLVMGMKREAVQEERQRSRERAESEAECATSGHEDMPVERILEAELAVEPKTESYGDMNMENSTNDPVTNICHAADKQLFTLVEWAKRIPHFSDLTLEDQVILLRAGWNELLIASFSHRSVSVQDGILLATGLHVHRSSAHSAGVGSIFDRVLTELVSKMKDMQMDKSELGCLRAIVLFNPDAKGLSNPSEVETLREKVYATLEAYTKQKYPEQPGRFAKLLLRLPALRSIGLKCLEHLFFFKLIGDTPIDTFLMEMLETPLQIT
Source text: (§1) A holoreceptor transactivation assay and a ligand binding assay which measure the antagonist/agonist like activity of the compounds of the invention, or their ability to bind to the several retinoid receptor subtypes, respectively, are described in published PCT Application No. WO WO93/11755 (particularly on pages 30-33 and 37-41) published on Jun. 24, 1993, the specification of which is also incorporated herein by reference. A detailed experimental procedure for holoreceptor transactivations has been described by Heyman et al. Cell 68, 397-406, (1992); Allegretto et al. J. Biol. Chem. 268, 26625-26633, and Mangelsdorf et al. The Retinoids: Biology, Chemistry and Medicine, pp 319-349, Raven Press Ltd., New York, which are expressly incorporated herein by reference. The results obtained in this assay are expressed in EC50 numbers, as they are also in the chimeric receptor transactivation assay. The results of ligand binding assay are expressed in Kd numbers. (See Cheng et al. Biochemical Pharmacology Vol. 22 pp 3099-3108, expressly incorporated herein by reference.)
(§2) Table 1 discloses the activity of certain exemplary compounds of the invention in the above-described holoreceptor transactivation assay and a ligand binding assays. Particularly, the transactivation data pertaining to RAR receptors were obtained in the chimeric assay, and the data pertaining to transactivation of RXR receptors were obtained in the holoreceptor transactivation assay.

RXRβ [2] = target: T2, RXRβ (Homo sapiens, UniProt P28702); experiment: ligand binding assay, RXRβ; settings: read-out: Kd (nM) RXR β
T2 construct: expressed in transfected cells
T2 sequence (P28702 1-533): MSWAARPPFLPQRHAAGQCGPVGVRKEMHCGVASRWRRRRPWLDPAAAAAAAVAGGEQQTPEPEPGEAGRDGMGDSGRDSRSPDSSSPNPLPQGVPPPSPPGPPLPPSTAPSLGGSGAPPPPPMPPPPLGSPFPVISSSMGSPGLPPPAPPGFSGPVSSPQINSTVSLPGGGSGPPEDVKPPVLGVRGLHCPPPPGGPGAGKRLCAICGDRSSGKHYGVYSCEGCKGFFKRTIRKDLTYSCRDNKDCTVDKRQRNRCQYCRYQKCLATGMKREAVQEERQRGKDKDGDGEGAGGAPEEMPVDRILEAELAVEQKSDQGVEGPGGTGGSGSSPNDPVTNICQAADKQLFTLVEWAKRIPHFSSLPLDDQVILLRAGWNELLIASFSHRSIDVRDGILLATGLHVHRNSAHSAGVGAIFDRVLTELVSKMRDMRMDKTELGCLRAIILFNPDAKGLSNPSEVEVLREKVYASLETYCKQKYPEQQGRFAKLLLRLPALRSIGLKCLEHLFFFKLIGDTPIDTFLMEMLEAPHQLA
Source text: as §1, §2

RXRα [3] = target: T3, RXRα (Homo sapiens, UniProt P19793); experiment: ligand binding assay, RXRα; settings: read-out: Kd (nM) RXR α
T3 construct: expressed in transfected cells
T3 sequence (P19793 1-462): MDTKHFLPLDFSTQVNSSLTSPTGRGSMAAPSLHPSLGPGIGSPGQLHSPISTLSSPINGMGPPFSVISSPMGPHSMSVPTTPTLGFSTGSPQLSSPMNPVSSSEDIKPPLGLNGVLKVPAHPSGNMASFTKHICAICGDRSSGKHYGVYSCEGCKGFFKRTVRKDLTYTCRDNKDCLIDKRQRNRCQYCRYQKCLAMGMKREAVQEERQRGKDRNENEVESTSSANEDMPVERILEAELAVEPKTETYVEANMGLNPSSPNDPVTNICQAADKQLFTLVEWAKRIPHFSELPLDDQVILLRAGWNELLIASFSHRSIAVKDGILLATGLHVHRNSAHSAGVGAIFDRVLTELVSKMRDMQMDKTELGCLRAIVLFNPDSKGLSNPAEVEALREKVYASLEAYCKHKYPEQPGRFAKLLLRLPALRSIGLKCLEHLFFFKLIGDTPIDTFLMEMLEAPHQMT
Source text: as §1, §2

RXRα [4] = target: T3, RXRα; experiment: holoreceptor transactivation assay, RXRα; assay type: cell-based; settings: for EC50: read-out: EC50 (nM) RXR α
Source text: as §1, §2

RXRγ [5] = target: T1, RXRγ; experiment: holoreceptor transactivation assay, RXRγ; assay type: cell-based; settings: for EC50: read-out: EC50 (nM) RXR γ
Source text: as §1, §2

RXRβ [6] = target: T2, RXRβ; experiment: holoreceptor transactivation assay, RXRβ; assay type: cell-based; settings: for EC50: read-out: EC50 (nM) RXR β
Source text: as §1, §2

SMILES | Kd (RXRγ [1]) | Kd (RXRβ [2]) | Kd (RXRα [3]) | % Eff RXR α (RXRα [4]) | EC50 (RXRα [4]) | % Eff RXR γ (RXRγ [5]) | EC50 (RXRγ [5]) | % Eff RXR β (RXRβ [6]) | EC50 (RXRβ [6])
CCc1oc2ccc([C@@]3(C)C[C@H]3/C=C/C(C)=C/C(=O)O)cc2c1C(C)(C)C [Compound 12, 3-Methyl-6(S),7(S)-methano-7-(3-t-butyl-2-ethyl-benzofur-5-yl)-octa-2(E),4(E)-dienoic acid] | 40 nM | 20 nM | 11 nM | 144% | 1.5 nM | 131% | 2.9 nM | 150% | 17 nM
CCc1oc2ccc([C@@]3(C)C[C@H]3/C=C/C(C)=C/C(=O)O)cc2c1CC [Compound 20, 3-Methyl-6(S),7(S)-methano-7-(2,3-di-ethyl-benzofur-5-yl)-octa-2(E),4(E)-dienoic acid] | 256 nM | 288 nM | 71 nM | 130% | 6 nM | 90% | 12 nM | 90% | 44 nM
CCc1oc2ccc([C@@]3(C)C[C@H]3/C=C/C(C)=C/C(=O)O)cc2c1C(C)C [Compound 28, 3-Methyl-6(S),7(S)-methano-7-(2-ethyl-3-iso-propyl-benzofur-5-yl)-octa-2(E),4(E)-dienoic acid] | 48 nM | 17 nM | 6.8 nM | 102% | 0.7 nM | 110% | 0.8 nM | 116% | 4.3 nM
CCCCCc1oc2ccc([C@@]3(C)C[C@H]3/C=C/C(C)=C/C(=O)O)cc2c1C(C)(C)C [Compound 38, 3-Methyl-6(S),7(S)-methano-7-(3-t-butyl-2-n-pentyl-benzofur-5-yl)-octa-2(E),4(E)-dienoic acid] | > 1000 nM | 98 nM | 19.5 nM | 100% | 2.2 nM | 101% | 2.6 nM | 96% | 9.3 nM
